Data from patent US8765695B2, “Use of ginsenoside RG1, its metabolites ginsenoside RH1 and/or PPT” (priority 2007, dated 2014).
Marks after values point to notes of the source that are not given here.

Columns and labels:
male mice = test: Test of sexual ethology: bestriding time and mating frequency of male mice with estral female mice; format: in vivo, Kunming mice
Method: Kunming male mice (age 10 weeks, weight body 32-36 g), Kunming female mice (age 10 weeks, weight body 30-34 g), as purchased from Laboratory Animal Center of Chinese Academy of Medical Sciences (with the number of certificate SCXK (Jing) 2005-0004), were placed in a clean grade animal house alternately in light and in darkness (12 h:12 h), while taking water and food freely. The test started after the mice had adapted to the environment in the animal house for 5 days. During the period of adapting to the environment, male mice and female mice were isolated from each other.
In order to correctly reflect the change of male mice in sexual function, we prepared estral female mice by ectomizing their ovaries and inducing them by application of external hormone. After anesthetized with chloral hydrate, female mice were subjected to the steps of ectomizing bilateral ovaries by dorsal approach, ligating uterine tube residue end, and suturing skin, followed by recuperating for one week. The induction by application of hormone was conducted by reference to the literature (Masayoshi Nomura, et al, Physiology & Behavior 91 (2007) 223-228), comprising the steps of subcutaneously injecting estradiol benzoate (30 μg per mouse, is) at 48 h prior to use, and subcutaneously injecting progesterone (500 μg per mouse, is) at 4 h prior to use, to thereby obtain estral female mice.
Estral female mice were put in a ratio of 2:1 to male mice inside a mating box in which male mice were placed. They were trained for consecutive 5 days, 12 min each day. When the mating reaction of male mice became stable, the mice were grouped with the consideration that the bestriding time in each group of mice was substantially the same, while discarding the mice that had relatively weak reaction and no reaction.
In darkness, ethological test was carried out in the rearing cage of male mice. Estral female mice and male mice were kept in a ratio of 2:1 inside the same box for 12 min, during which period the bestriding time and mating frequency of the male mice were observed.
All of the values were expressed by using mean value and standard error (M±SEM), the analytic method used was one-way analysis of variance (ANOVA), and the statistic results were expressed by double star method, i.e., *<0.05, **<0.01.

[1] = system: sperms in tail of epididymis; test: Gossypol aspermatogenesis model: quality of sperms from tail of epididymis by CASA; format: in vivo,  male mice; details: 14th day
PDE5 = PDE5 (Homo sapiens, UniProt O76074); test: Inhibition effect on PDE5 (cGMP degradation, radioimmune autograph technique); format: biochemical; details: read-out: Inhibition rate on PDE5
[2] = 5 mg/kg, 1st day, 12 min observation
[3] = 10 mg/kg, 1st day, 12 min observation
[4] = 5 mg/kg every day + gossypol 50 mg/kg every other day
[5] = 10 mg/kg every day + gossypol 50 mg/kg every other day

CC(C)=CCC[C@](C)(O)[C@H]1CC[C@]2(C)[C@@H]1[C@H](O)C[C@@H]1[C@@]3(C)CC[C@H](O)C(C)(C)[C@@H]3[C@@H](O[C@@H]3O[C@H](CO)[C@@H](O)[C@H](O)[C@H]3O)C[C@]12C [Rh1, ginsenoside Rh1]
bestriding time of mice (male mice; 5 mg/kg, 1st day): 2.8 ± 3.2 min
mating frequency of mice (male mice; [2]): 11.3 ± 4.9
bestriding time of mice (male mice; 5 mg/kg, 4th day): 3.5 ± 4.1 min
mating frequency of mice (male mice; 5 mg/kg, 4th day): 13.9 ± 3.3
bestriding time of mice (male mice; 5 mg/kg, 8th day): 4.1 ± 3.5 min
mating frequency of mice (male mice; 5 mg/kg, 8th day): 23.5 ± 5.7
bestriding time of mice (male mice; 5 mg/kg, 12th day): 6.2 ± 2.9 min
mating frequency of mice (male mice; 5 mg/kg, 12th day): 29.4 ± 4.8
bestriding time of mice (male mice; 5 mg/kg, 14th day): 8.6 ± 5.2 min
mating frequency of mice (male mice; 5 mg/kg, 14th day): 33.6 ± 6.1
bestriding time of mice (male mice; 5 mg/kg, 16th day): 8.7 ± 4.2* min
mating frequency of mice (male mice; 5 mg/kg, 16th day): 32.2 ± 5.3
bestriding time of mice (male mice; 5 mg/kg, 18th day): 8.9 ± 3.3* min
mating frequency of mice (male mice; 5 mg/kg, 18th day): 39.8 ± 9.3*
bestriding time of mice (male mice; 5 mg/kg, 20th day): 9.2 ± 3.4* min
mating frequency of mice (male mice; 5 mg/kg, 20th day): 38.1 ± 8.5*
bestriding time of mice (male mice; 10 mg/kg, 1st day): 3.6 ± 2.7 min
mating frequency of mice (male mice; [3]): 9.7 ± 5.6
bestriding time of mice (male mice; 10 mg/kg, 4th day): 3.9 ± 3.8 min
mating frequency of mice (male mice; 10 mg/kg, 4th day): 14.3 ± 9.5
bestriding time of mice (male mice; 10 mg/kg, 8th day): 4.0 ± 3.5 min
mating frequency of mice (male mice; 10 mg/kg, 8th day): 25.7 ± 8.6
bestriding time of mice (male mice; 10 mg/kg, 12th day): 6.3 ± 2.6 min
mating frequency of mice (male mice; 10 mg/kg, 12th day): 28.4 ± 10.5
bestriding time of mice (male mice; 10 mg/kg, 14th day): 8.4 ± 3.1 min
mating frequency of mice (male mice; 10 mg/kg, 14th day): 32.2 ± 9.3
bestriding time of mice (male mice; 10 mg/kg, 16th day): 8.9 ± 3.7* min
mating frequency of mice (male mice; 10 mg/kg, 16th day): 34.1 ± 8.2
bestriding time of mice (male mice; 10 mg/kg, 18th day): 9.1 ± 3.8* min
mating frequency of mice (male mice; 10 mg/kg, 18th day): 36.4 ± 6.7*
bestriding time of mice (male mice; 10 mg/kg, 20th day): 9.3 ± 3.8* min
mating frequency of mice (male mice; 10 mg/kg, 20th day): 43.4 ± 7.3*
Number of sperms [1, 4]: 142 ± 24** 10^6 · ml−1
Motility of sperms (A + B) ([1]; 5 mg/kg every day + gossypol): 39 ± 8 %
Viability rate of sperms ([1]; 5 mg/kg every day + gossypol): 56 ± 10 %
Number of sperms [1, 5]: 143 ± 16** 10^6 · ml−1
Motility of sperms (A + B) ([1]; 10 mg/kg every day + gossypol): 39 ± 6 %
Viability rate of sperms ([1]; 10 mg/kg every day + gossypol): 52 ± 5 %

CC(C)=CCC[C@](C)(O)[C@H]1CC[C@]2(C)[C@@H]1[C@H](O)C[C@@H]1[C@@]3(C)CC[C@H](O)C(C)(C)[C@@H]3[C@@H](O)C[C@]12C [Ppt]
bestriding time of mice (male mice; 5 mg/kg, 1st day): 3.3 ± 2.3 min
mating frequency of mice (male mice; [2]): 11.4 ± 6.8
bestriding time of mice (male mice; 5 mg/kg, 4th day): 3.9 ± 4.2 min
mating frequency of mice (male mice; 5 mg/kg, 4th day): 15.4 ± 8.2
bestriding time of mice (male mice; 5 mg/kg, 8th day): 4.5 ± 3.8 min
mating frequency of mice (male mice; 5 mg/kg, 8th day): 27.4 ± 8.7
bestriding time of mice (male mice; 5 mg/kg, 12th day): 6.8 ± 3.3 min
mating frequency of mice (male mice; 5 mg/kg, 12th day): 28.2 ± 9.3
bestriding time of mice (male mice; 5 mg/kg, 14th day): 7.9 ± 4.4 min
mating frequency of mice (male mice; 5 mg/kg, 14th day): 29.5 ± 7.7
bestriding time of mice (male mice; 5 mg/kg, 16th day): 8.3 ± 3.1* min
mating frequency of mice (male mice; 5 mg/kg, 16th day): 33.5 ± 10.4
bestriding time of mice (male mice; 5 mg/kg, 18th day): 9.2 ± 3.8* min
mating frequency of mice (male mice; 5 mg/kg, 18th day): 39.2 ± 8.6*
bestriding time of mice (male mice; 5 mg/kg, 20th day): 9.1 ± 3.5* min
mating frequency of mice (male mice; 5 mg/kg, 20th day): 41.7 ± 7.4*
bestriding time of mice (male mice; 10 mg/kg, 1st day): 2.9 ± 3.4 min
mating frequency of mice (male mice; [3]): 13.4 ± 6.3
bestriding time of mice (male mice; 10 mg/kg, 4th day): 3.3 ± 4.1 min
mating frequency of mice (male mice; 10 mg/kg, 4th day): 15.4 ± 8.4
bestriding time of mice (male mice; 10 mg/kg, 8th day): 5.1 ± 3.8 min
mating frequency of mice (male mice; 10 mg/kg, 8th day): 22.8 ± 9.6
bestriding time of mice (male mice; 10 mg/kg, 12th day): 7.2 ± 3.3 min
mating frequency of mice (male mice; 10 mg/kg, 12th day): 31.6 ± 8.4
bestriding time of mice (male mice; 10 mg/kg, 14th day): 8.4 ± 4.2 min
mating frequency of mice (male mice; 10 mg/kg, 14th day): 33.7 ± 8.5
bestriding time of mice (male mice; 10 mg/kg, 16th day): 9.4 ± 3.9* min
mating frequency of mice (male mice; 10 mg/kg, 16th day): 35.3 ± 9.3
bestriding time of mice (male mice; 10 mg/kg, 18th day): 9.4 ± 3.9* min
mating frequency of mice (male mice; 10 mg/kg, 18th day): 37.2 ± 8.3*
bestriding time of mice (male mice; 10 mg/kg, 20th day): 9.4 ± 3.1* min
mating frequency of mice (male mice; 10 mg/kg, 20th day): 40.2 ± 7.3*
Number of sperms [1, 4]: 141 ± 18** 10^6 · ml−1
Motility of sperms (A + B) ([1]; 5 mg/kg every day + gossypol): 38 ± 11 %
Viability rate of sperms ([1]; 5 mg/kg every day + gossypol): 55 ± 9 %
Number of sperms [1, 5]: 178 ± 54** 10^6 · ml−1
Motility of sperms (A + B) ([1]; 10 mg/kg every day + gossypol): 39 ± 9 %
Viability rate of sperms ([1]; 10 mg/kg every day + gossypol): 56 ± 7 %

CCCc1nn(C)c2c(=O)[nH]c(-c3cc(S(=O)(=O)N4CCN(C)CC4)ccc3OCC)nc12 [Sildenafil, reference compound]
inhibition at 0.0025 µM (PDE5): 71.6%
inhibition at 0.005 µM (PDE5): 14.6%
inhibition at 0.01 µM (PDE5): 52.6%
inhibition at 0.02 µM (PDE5): 83.3%
inhibition at 0.04 µM (PDE5): 100%
